Results from patent publication US7846697B2, “Method of producing a low molecular weight organic compound in a cell” (BLMaps, priority 2003, dated 2010).

Tests used:
[1] = test system: E. coli strain JM109; test: Vanillin sensitivity (STV) on solid LB growth medium; type: cell-based; conditions: no growth at 1/10000 dilution, growth at 1/100 severely inhibited, 24 hours
Method: (§1) The three different E. coli strains TOP10, JM109, and KO1418 were grown for 18 hours in the appropriate media, after which serial dilutions in growth medium (dilution factors 1, 1/100, 1/10000 and 1/1000000) were made. Droplets of these cell suspensions were applied to Petri dishes containing solid LB growth medium with various concentrations of vanillin, and the plates were incubated at the appropriate growth temperature for 24 hours (E. coli), after which they were photographed. […] This number constituted the STV (Sensitivity To Vanillin) level. The STV numbers for the different microorganisms studied can be seen in Table 9.1.

[2] = test system: E. coli strain KO1418; test: as above; type: cell-based; conditions: no growth at 1/10000 dilution, growth at 1/100 severely inhibited, 24 hours
Method: as §1

[3] = test system: E. coli strain TOP10; test: as above; type: cell-based; conditions: no growth at 1/10000 dilution, growth at 1/100 severely inhibited, 24 hours
Method: as §1

[4] = test system: E. coli strain JM109 transformants; test: Toxicity of vanillin with IPTG-induced expression of UGT85B1 or AS, growth on plates; type: cell-based; note: key: −: No growth; +: weak growth; ++: good growth
Method: (§2) The E. coli strains TOP10, JM109, and KO1418 were all transformed with the constructed plasmids pJH401, pJH402, pJH411 and pJH412, and pKK223-3 as control, employing standard transformation protocols. Transformants were selected for ampicilin resistance, and two transformants of each E. coli strain with each plasmid were kept for expression experiments. The E. coli transformants were inoculated from plate cultures into 2 ml liquid growth medium (LB medium containing ampicilin at 100 μg/ml), and allowed to grow for 20 hours at 37° C. The precultures were diluted 100 times 10^4 times and 10^6 times in growth medium, and 4 μl droplets of these cell suspensions were applied to the surface of Petri dishes containing solid LB-ampicilin medium containing varying concentrations of vanillin (based on the STV determinations described above), and without or with (to induce gene expression) 1 mM isopropyl thiogalactoside (IPTG). The plates were incubated at 37° C. for 24 hours, after which growth on the various concentrations of vanillin was monitored and recorded.

[5] = test system: E. coli strain KO1418 transformants; test: as above; type: cell-based; note: key: −: No growth; +: weak growth; ++: good growth
Method: as §2

[6] = test system: E. coli strain JM109 transformants; test: Toxicity of vanillin with constitutive expression of UGT85B1 or AS, growth on plates; type: cell-based
Source text: For experimentation with constitutive expression of UGT85B1 and AS, the E. coli strains JM109, and K01418 were transformed with the constructed plasmids pJH 430, pJH431, pJH432, pJH433, pJH434, pJH435, pJH436, pJH437, pJH438, pJH439, pJH440, and pJH441, and pKOL30 as control, employing standard transformation protocols. Transformants were selected for ampicilin resistance, and two transformants of each E. coli strain with each plasmid were kept for expression experiments. The E. coli transformants were inoculated from plate cultures into 2 ml liquid growth medium (LB medium containing ampicilin at 100 μg/ml), and allowed to grow for 20 hours at 37° C. The precultures were diluted 100 times 10^4 times and 10^6 times in growth medium, and 4 μl droplets of these cell suspensions were applied to the surface of Petri dishes containing solid LB-ampicilin medium containing varying concentrations of vanillin (based on the STV determinations described above). The plates were incubated at 37° C. for 24 hours, after which growth on the various concentrations of vanillin was monitored and recorded.

[7] = test system: E. coli strain JM109 transformants; test: Toxicity of vanillin with IPTG-induced expression of UGT85B1 or AS, growth on plates; type: cell-based; conditions: JM109 [pJH410], IPTG induction No; note: key: −: No growth; +: weak growth; ++: good growth
[8] = test system: E. coli strain KO1418 transformants; test: as above; type: cell-based; parameters: key to the marks not given beside the values; conditions: KO1418 [pJH410]; note: key: −: No growth; +: weak growth; ++: good growth
[9] = test system: microorganisms; conditions: Pfeifer et al, 1984; cited from earlier work

COc1cc(C=O)ccc1O [Vanillin, vanillin]
STV (Sensitivity To Vanillin) level [1]: 0.14 % (w/v)
STV (Sensitivity To Vanillin) level [2]: 0.18 % (w/v)
STV (Sensitivity To Vanillin) level [3]: 0.12 % (w/v)
growth ([4]; JM109 [pJH401], 0.08% vanillin, IPTG induction No): ++
growth ([4]; JM109 [pJH401], 0.08% vanillin, IPTG induction Yes): ++
growth ([4]; JM109 [pJH401], 0.12% vanillin, IPTG induction No): ++
growth ([4]; JM109 [pJH401], 0.12% vanillin, IPTG induction Yes): ++
growth ([4]; JM109 [pJH401], 0.16% vanillin, IPTG induction No): −
growth ([4]; JM109 [pJH401], 0.16% vanillin, IPTG induction Yes): −
growth ([4]; JM109 [pJH401], 0.2% vanillin, IPTG induction No): −
growth ([4]; JM109 [pJH401], 0.2% vanillin, IPTG induction Yes): −
growth ([4]; JM109 [pJH402], 0.08% vanillin, IPTG induction No): ++
growth ([4]; JM109 [pJH402], 0.08% vanillin, IPTG induction Yes): ++
growth ([4]; JM109 [pJH402], 0.12% vanillin, IPTG induction No): ++
growth ([4]; JM109 [pJH402], 0.12% vanillin, IPTG induction Yes): ++
growth ([4]; JM109 [pJH402], 0.16% vanillin, IPTG induction No): +
growth ([4]; JM109 [pJH402], 0.16% vanillin, IPTG induction Yes): ++
growth ([4]; JM109 [pJH402], 0.2% vanillin, IPTG induction No): −
growth ([4]; JM109 [pJH402], 0.2% vanillin, IPTG induction Yes): −
growth ([4]; JM109 [pJH410], 0.08% vanillin, IPTG induction Yes): ++
growth ([4]; JM109 [pJH410], 0.12% vanillin, IPTG induction No): ++
growth ([4]; JM109 [pJH410], 0.12% vanillin, IPTG induction Yes): ++
growth ([4]; JM109 [pJH410], 0.16% vanillin, IPTG induction No): ++
growth ([4]; JM109 [pJH410], 0.16% vanillin, IPTG induction Yes): +
growth ([4]; JM109 [pJH410], 0.2% vanillin, IPTG induction Yes): −
growth ([4]; JM109 [pKK223-3], 0.08% vanillin, IPTG induction No): ++
growth ([4]; JM109 [pKK223-3], 0.08% vanillin, IPTG induction Yes): ++
growth ([4]; JM109 [pKK223-3], 0.12% vanillin, IPTG induction No): ++
growth ([4]; JM109 [pKK223-3], 0.12% vanillin, IPTG induction Yes): ++
growth ([4]; JM109 [pKK223-3], 0.16% vanillin, IPTG induction No): −
growth ([4]; JM109 [pKK223-3], 0.16% vanillin, IPTG induction Yes): −
growth ([4]; JM109 [pKK223-3], 0.2% vanillin, IPTG induction No): −
growth ([4]; JM109 [pKK223-3], 0.2% vanillin, IPTG induction Yes): −
growth ([5]; KO1418 [pJH401], 0.08% vanillin, IPTG induction No): ++
growth ([5]; KO1418 [pJH401], 0.08% vanillin, IPTG induction Yes): ++
growth ([5]; KO1418 [pJH401], 0.12% vanillin, IPTG induction No): ++
growth ([5]; KO1418 [pJH401], 0.12% vanillin, IPTG induction Yes): ++
growth ([5]; KO1418 [pJH401], 0.16% vanillin, IPTG induction No): −
growth ([5]; KO1418 [pJH401], 0.16% vanillin, IPTG induction Yes): ++
growth ([5]; KO1418 [pJH401], 0.2% vanillin, IPTG induction No): −
growth ([5]; KO1418 [pJH401], 0.2% vanillin, IPTG induction Yes): −
growth ([5]; KO1418 [pJH402], 0.08% vanillin, IPTG induction No): ++
growth ([5]; KO1418 [pJH402], 0.08% vanillin, IPTG induction Yes): ++
growth ([5]; KO1418 [pJH402], 0.12% vanillin, IPTG induction No): ++
growth ([5]; KO1418 [pJH402], 0.12% vanillin, IPTG induction Yes): ++
growth ([5]; KO1418 [pJH402], 0.16% vanillin, IPTG induction No): +
growth ([5]; KO1418 [pJH402], 0.16% vanillin, IPTG induction Yes): ++
growth ([5]; KO1418 [pJH402], 0.2% vanillin, IPTG induction No): −
growth ([5]; KO1418 [pJH402], 0.2% vanillin, IPTG induction Yes): −
growth ([5]; KO1418 [pJH410], 0.08% vanillin, IPTG induction No): ++
growth ([5]; KO1418 [pJH410], 0.12% vanillin, IPTG induction Yes): ++
growth ([5]; KO1418 [pJH410], 0.16% vanillin, IPTG induction No): ++
growth ([5]; KO1418 [pJH410], 0.16% vanillin, IPTG induction Yes): ++
growth ([5]; KO1418 [pJH410], 0.2% vanillin, IPTG induction No): −
growth ([5]; KO1418 [pKK223-3], 0.08% vanillin, IPTG induction No): ++
growth ([5]; KO1418 [pKK223-3], 0.08% vanillin, IPTG induction Yes): ++
growth ([5]; KO1418 [pKK223-3], 0.12% vanillin, IPTG induction No): ++
growth ([5]; KO1418 [pKK223-3], 0.12% vanillin, IPTG induction Yes): ++
growth ([5]; KO1418 [pKK223-3], 0.16% vanillin, IPTG induction No): −
growth ([5]; KO1418 [pKK223-3], 0.16% vanillin, IPTG induction Yes): ++
growth ([5]; KO1418 [pKK223-3], 0.2% vanillin, IPTG induction No): −
growth ([5]; KO1418 [pKK223-3], 0.2% vanillin, IPTG induction Yes): −
growth ([6]; JM109 [pJH430], 0.08% vanillin): +++
growth ([6]; JM109 [pJH430], 0.12% vanillin): +++
growth ([6]; JM109 [pJH430], 0.16% vanillin): ++
growth ([6]; JM109 [pJH431], 0.08% vanillin): +++
growth ([6]; JM109 [pJH431], 0.12% vanillin): +++
growth ([6]; JM109 [pJH431], 0.16% vanillin): ++
growth ([6]; JM109 [pJH432], 0.08% vanillin): +++
growth ([6]; JM109 [pJH432], 0.12% vanillin): +++
growth ([6]; JM109 [pJH432], 0.16% vanillin): +
growth ([6]; JM109 [pJH433], 0.08% vanillin): +++
growth ([6]; JM109 [pJH433], 0.12% vanillin): +++
growth ([6]; JM109 [pJH433], 0.16% vanillin): +
growth ([6]; JM109 [pKOL30], 0.08% vanillin): +++
growth ([6]; JM109 [pKOL30], 0.12% vanillin): ++
growth ([6]; JM109 [pKOL30], 0.16% vanillin): −
growth ([7]; 0.08% vanillin): ++
growth ([7]; 0.2% vanillin): −
growth ([8]; 0.08% vanillin, IPTG induction Yes): ++
growth ([8]; 0.12% vanillin, IPTG induction No): ++
growth ([8]; 0.2% vanillin, IPTG induction Yes): ++
concentration in the medium at which it acts as a strong growth inhibitor [9]: 5 g/L
